Data: patent US8940897B2, “1,3,4-oxadiazole and 1,3,4-thiadiazole β-lactamase inhibitors” (priority 2012, dated 2015)
Counter-ions that a name gives are not always drawn.

Tests used:
[1] = test system: bacterial strains that express the class D cephalosporinase OXA-15; test: Synergy MIC / standard BLI potentiation MIC assay, strains expressing OXA-15;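 note: more active means a lower MIC or sMIC than Avibactam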; type: cell-based, E. coli; settings: in the presence of a β-lactam; comparator Avibactam (CCC)
Method: (§1) Unless otherwise indicated, the activity of the BLI compounds can be described by the MIC value obtained from a Synergy MIC assay or a BLI potentiation assay (e.g as described herein), both of which are run in the presence of a β-lactam.
(§2) The experimental protocol was performed according to Clinical and Laboratory Standards Institute (CLSI) guidelines with modifications as described below (CLSI guidelines can be derived from the CLSI document M07-A9 published in January 2012: “Methods for Dilution Antimicrobial Susceptibility Tests for Bacteria That Grow Aerobically; Approved Standard-Ninth Edition”).
(§3) To prepare for MIC testing, frozen glycerol stocks of clinical isolates (Klebsiella pneumoniae, Eschericia coli, Enterobacter spp, Citrobacter spp, or Pseudomonas aeruginosa) were used to streak for isolated colonies on rich, non-selective, tryptic soy agar containing 5% sheep's blood (TSAB). Frozen glycerol stocks of laboratory engineered, isogenic E. coli strains, which contain cloned β-lactamase expressing plasmids were used to streak for isolated colonies on rich, selective LB agar supplemented with 25 μg/mL tetracycline to maintain the plasmid. All strains were incubated at 37° C. for 18-24 hrs.
(§4) On the day of testing, primary cultures were started by scraping off 5-10 colonies from the TSAB plates containing clinical strains or the tetracycline supplemented LB plates containing engineered strains. The clinical strain material was suspended in ˜5 mL of cation adjusted Mueller Hinton Broth (CAMHB) in 14 mL culture tubes. The engineered strain material was suspended in CAMHB (supplemented with 25 μg/mL tetracycline) in 14 mL culture tubes. All strains were incubated at 37° C. with aeration (200 rpm) for ˜2 hrs until the optical density at 600 nm (OD600) was ≧0.1.
(§5) The two compound components of the assay were each diluted in CAMHB and added to the 96-well broth microdilution assay plates. 50 μL of the β-lactam was added to each well of the assay plate in 2-fold dilutions with final concentrations ranging from 128 to 0.13 μg/mL. 25 μL of the BLI compound was added to all wells in the broth microdilution plates at a final concentration of 4 μg/mL. Inoculum cultures were prepared by standardizing the primary cultures to OD600=0.1 and then adding 20 μL of the adjusted primary culture per 1 mL CAMHB for clinical strains or CAMHB (supplemented with tetracycline at 100 μg/mL) for engineered strains, so that the final inoculum density was ˜10^5 colony forming units per milliliter. Diluted inoculum cultures were used to inoculate 25 μl, per well in 96-well broth microdilution assay plates. The final volume of each well was 100 μL and contained a β-lactam at different concentrations, a BLIcompound at 4 μg/mL concentration, the bacterial culture at an OD600 of approximately 0.001 and when necessary tetracycline at 25 μg/mL.
(§6) Plates were incubated for 18-20 hours at 37° C. with aeration (200 rpm). Following incubation, growth was confirmed visually placing plates over a viewing apparatus (stand with a mirror underneath) and then OD600 was measured using a SpectraMax 340PC384 plate reader (Molecular Devices, Sunnyvale, Calif.). Growth was defined as turbidity that could be detected with the naked eye or achieving minimum OD600 of 0.1. MIC values were defined as the lowest concentration producing no visible turbidity.
(§7) The synergy MIC (sMIC) assay determines the concentration of the BLI required to potentiate the activity of a fixed concentration of a β-lactam antibiotic against β-lactamase producing bacterial strains. The experimental protocol was performed according to Clinical and Laboratory Standards Institute (CLSI) guidelines with modifications as described below (CLSI guidelines can be derived from the CLSI document M07-A9 published in January 2012: “Methods for Dilution Antimicrobial Susceptibility Tests for Bacteria That Grow Aerobically; Approved Standard-Ninth Edition”). […]

[2] = test system: bacterial strains that express KPC β-lactamases; test: Synergy MIC / standard BLI potentiation MIC assay, strains expressing KPC β-lactamases; type: cell-based; settings: for at least one KPC strain and/or a better spectrum of activity against KPC strains than Avibactam; in the presence of a β-lactam
Method: as §1, §2, §3, §4, §5, §6, §7

Row | Compound | activity against bacterial strains that express OXA-15 β-lactamase compared with Avibactam [1] | activity against bacterial strains that express KPC β-lactamase compared with Avibactam [2]
1 | O=C1N2C[C@@H](CC[C@H]2c2nnco2)N1OS(=O)(=O)O [Compound 701, (2S,5R)-2-(1,3,4-oxadiazol-2-yl)-7-oxo-1,6-diazabicyclo[3.2.1]octan-6-yl hydrogen sulfate] | more active than Avibactam | more active than Avibactam
2 | NCc1nnc([C@@H]2CC[C@@H]3CN2C(=O)N3OS(=O)(=O)O)o1 [Compound 702, (2S,5R)-2-(5-(aminomethyl)-1,3,4-oxadiazol-2-yl)-7-oxo-1,6-diazabicyclo[3.2.1]octan-6-yl hydrogen sulfate] | more active than Avibactam | more active than Avibactam
3 | NCCc1nnc([C@@H]2CC[C@@H]3CN2C(=O)N3OS(=O)(=O)O)o1 [Compound 703, (2S,5R)-2-(5-(2-aminoethyl)-1,3,4-oxadiazol-2-yl)-7-oxo-1,6-diazabicyclo[3.2.1]octan-6-yl hydrogen sulfate] | more active than Avibactam | more active than Avibactam
4 | N=C(N)NCCc1nnc([C@@H]2CC[C@@H]3CN2C(=O)N3OS(=O)(=O)O)o1 [Compound 705, (2S,5R)-2-(5-(2-guanidinoethyl)-1,3,4-oxadiazol-2-yl)-7-oxo-1,6-diazabicyclo[3.2.1]octan-6-yl hydrogen sulfate] | more active than Avibactam | more active than Avibactam
5 | NC(=O)c1nnc([C@@H]2CC[C@@H]3CN2C(=O)N3OS(=O)(=O)O)o1 [Compound 706, (2S,5R)-2-(5-carbamoyl-1,3,4-oxadiazol-2-yl)-7-oxo-1,6-diaza-bicyclo[3.2.1]octan-6-yl hydrogen sulfate] | more active than Avibactam | more active than Avibactam
6 | O=C1N2C[C@@H](CC[C@H]2c2nnc(C3CNC3)o2)N1OS(=O)(=O)O [Compound 708, (2S,5R)-2-(5-(azetidin-3-yl)-1,3,4-oxadiazol-2-yl)-7-oxo-1,6-diazabicyclo[3.2.1]octan-6-yl hydrogen sulfate] | more active than Avibactam | more active than Avibactam
7 | N=C(N)N1CC(c2nnc([C@@H]3CC[C@@H]4CN3C(=O)N4OS(=O)(=O)O)o2)C1 [Compound 709, (2S,5R)-2-(5-(1-carbamimidoylazetidin-3-yl)-1,3,4-oxadiazol-2-yl)-7-oxo-1,6-diazabicyclo[3.2.1]octan-6-yl hydrogen sulfate] | more active than Avibactam | more active than Avibactam
8 | O=C1N2C[C@@H](CC[C@H]2c2nnc(C3CCNC3)o2)N1OS(=O)(=O)O (stereo partly drawn) [Compound 710, (2S,5R)-7-oxo-2-(5-(pyrrolidin-3-yl)-1,3,4-oxadiazol-2-yl)-1,6-diazabicyclo[3.2.1]octan-6-yl hydrogen sulfate] | more active than Avibactam | more active than Avibactam
9 | O=C1N2C[C@@H](CC[C@H]2c2nnc(C3CCNCC3)o2)N1OS(=O)(=O)O [Compound 711, (2S,5R)-7-oxo-2-(5-(piperidin-4-yl)-1,3,4-oxadiazol-2-yl)-1,6-diazabicyclo[3.2.1]octan-6-yl hydrogen sulfate] | more active than Avibactam | more active than Avibactam
10 | NCCCc1nnc([C@@H]2CC[C@@H]3CN2C(=O)N3OS(=O)(=O)O)o1 [Compound 720, (2S,5R)-2-(5-(3-aminopropyl)-1,3,4-oxadiazol-2-yl)-7-oxo-1,6-diazabicyclo[3.2.1]octan-6-yl hydrogen sulfate] | more active than Avibactam | more active than Avibactam
11 | N=C(N)NCc1nnc([C@@H]2CC[C@@H]3CN2C(=O)N3OS(=O)(=O)O)s1 [Compound 721, (2S,5R)-2-(5-(guanidinomethyl)-1,3,4-thiadiazol-2-yl)-7-oxo-1,6-diazabicyclo[3.2.1]octan-6-yl hydrogen sulfate] | more active than Avibactam | more active than Avibactam
12 | CNCCc1nnc([C@@H]2CC[C@@H]3CN2C(=O)N3OS(=O)(=O)O)o1 [Compound 722, (2S,5R)-2-(5-(2-(methylamino)ethyl)-1,3,4-oxadiazol-2-yl)-7-oxo-1,6-diazabicyclo[3.2.1]octan-6-yl hydrogen sulfate] | more active than Avibactam | more active than Avibactam
13 | N=C(N)NCC1(c2nnc([C@@H]3CC[C@@H]4CN3C(=O)N4OS(=O)(=O)O)o2)CC1 [Compound 723, (2S,5R)-2-(5-(1-(guanidinomethyl)cyclopropyl)-1,3,4-oxadiazol-2-yl)-7-oxo-1,6-diazabicyclo[3.2.1]octan-6-yl hydrogen sulfate] | more active than Avibactam | more active than Avibactam
14 | NC1(Cc2nnc([C@@H]3CC[C@@H]4CN3C(=O)N4OS(=O)(=O)O)o2)CC1 [Compound 724, (2S,5R)-2-(5-((1-aminocyclopropyl)methyl)-1,3,4-oxadiazol-2-yl)-7-oxo-1,6-diazabicyclo[3.2.1]octan-6-yl hydrogen sulfate] | more active than Avibactam | more active than Avibactam
15 | O=C1N2C[C@@H](CC[C@H]2c2nnc(CNC3CNC3)o2)N1OS(=O)(=O)O [Compound 726, (2S,5R)-2-(5-((azetidin-3-ylamino)methyl)-1,3,4-oxadiazol-2-yl)-7-oxo-1,6-diazabicyclo[3.2.1]octan-6-yl hydrogen sulfate] | more active than Avibactam | more active than Avibactam
16 | N[C@H]1C[C@H](c2nnc([C@@H]3CC[C@@H]4CN3C(=O)N4OS(=O)(=O)O)o2)C1 [Compound 727, (2S,5R)-2-(5-((1r,3S)-3-aminocyclobutyl)-1,3,4-oxadiazol-2-yl)-7-oxo-1,6-diazabicyclo[3.2.1]octan-6-yl hydrogen sulfate] | more active than Avibactam | more active than Avibactam
17 | NC1CCN(CCc2nnc([C@@H]3CC[C@@H]4CN3C(=O)N4OS(=O)(=O)O)o2)CC1 [Compound 775, (2S,5R)-2-(5-(2-(4-aminopiperidin-1-yl)ethyl)-1,3,4-oxadiazol-2-yl)-7-oxo-1,6-diazabicyclo[3.2.1]octan-6-yl hydrogen sulfate] | – | more active than Avibactam
